US9988400B2 (Genentech, Inc., priority 2013, dated 2018)

Target: T1, HEK cells stably transfected with tetracycline inducible hNR1 and hNR2A (Homo sapiens, UniProt Q05586+Q12879)
T1 construct: expressed in transfected cells; host or cells: HEK cells, stably transfected, tetracycline/doxycycline inducible
Experiment: Assay 1: Cell-Based Assay, cytosolic calcium response to positive allosteric modulators (with 30 μM glycine and 300 nM L-glutamate, EC30)
Details: for EC50: cytosolic calcium response, with 30 μM glycine and 300 nM L-glutamate (EC30), — = no plateau was reached; for Max %: responses scaled relative to 100 μM L-glutamate maximal response (100%) and 0 μM L-glutamate (0%)
In short: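 Cells induced 24 h with 7.5 μg mL^−1 doxycycline plus 500 μM (+)-ketamine, loaded 60 min at 37 °C with calcium dye in Mg-free HBSS (1.8 mM Ca, probenecid, 10 μM (+)-ketamine, pH 7.15). Peak RFU over 5 min after compound addition, scaled to 100 μM L-glutamate (100%) and 0 μM (0%); four-parameter Hill fit for EC50, max % if no plateau.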

T1 sequence (Q12879 23-1464, other chains not shown): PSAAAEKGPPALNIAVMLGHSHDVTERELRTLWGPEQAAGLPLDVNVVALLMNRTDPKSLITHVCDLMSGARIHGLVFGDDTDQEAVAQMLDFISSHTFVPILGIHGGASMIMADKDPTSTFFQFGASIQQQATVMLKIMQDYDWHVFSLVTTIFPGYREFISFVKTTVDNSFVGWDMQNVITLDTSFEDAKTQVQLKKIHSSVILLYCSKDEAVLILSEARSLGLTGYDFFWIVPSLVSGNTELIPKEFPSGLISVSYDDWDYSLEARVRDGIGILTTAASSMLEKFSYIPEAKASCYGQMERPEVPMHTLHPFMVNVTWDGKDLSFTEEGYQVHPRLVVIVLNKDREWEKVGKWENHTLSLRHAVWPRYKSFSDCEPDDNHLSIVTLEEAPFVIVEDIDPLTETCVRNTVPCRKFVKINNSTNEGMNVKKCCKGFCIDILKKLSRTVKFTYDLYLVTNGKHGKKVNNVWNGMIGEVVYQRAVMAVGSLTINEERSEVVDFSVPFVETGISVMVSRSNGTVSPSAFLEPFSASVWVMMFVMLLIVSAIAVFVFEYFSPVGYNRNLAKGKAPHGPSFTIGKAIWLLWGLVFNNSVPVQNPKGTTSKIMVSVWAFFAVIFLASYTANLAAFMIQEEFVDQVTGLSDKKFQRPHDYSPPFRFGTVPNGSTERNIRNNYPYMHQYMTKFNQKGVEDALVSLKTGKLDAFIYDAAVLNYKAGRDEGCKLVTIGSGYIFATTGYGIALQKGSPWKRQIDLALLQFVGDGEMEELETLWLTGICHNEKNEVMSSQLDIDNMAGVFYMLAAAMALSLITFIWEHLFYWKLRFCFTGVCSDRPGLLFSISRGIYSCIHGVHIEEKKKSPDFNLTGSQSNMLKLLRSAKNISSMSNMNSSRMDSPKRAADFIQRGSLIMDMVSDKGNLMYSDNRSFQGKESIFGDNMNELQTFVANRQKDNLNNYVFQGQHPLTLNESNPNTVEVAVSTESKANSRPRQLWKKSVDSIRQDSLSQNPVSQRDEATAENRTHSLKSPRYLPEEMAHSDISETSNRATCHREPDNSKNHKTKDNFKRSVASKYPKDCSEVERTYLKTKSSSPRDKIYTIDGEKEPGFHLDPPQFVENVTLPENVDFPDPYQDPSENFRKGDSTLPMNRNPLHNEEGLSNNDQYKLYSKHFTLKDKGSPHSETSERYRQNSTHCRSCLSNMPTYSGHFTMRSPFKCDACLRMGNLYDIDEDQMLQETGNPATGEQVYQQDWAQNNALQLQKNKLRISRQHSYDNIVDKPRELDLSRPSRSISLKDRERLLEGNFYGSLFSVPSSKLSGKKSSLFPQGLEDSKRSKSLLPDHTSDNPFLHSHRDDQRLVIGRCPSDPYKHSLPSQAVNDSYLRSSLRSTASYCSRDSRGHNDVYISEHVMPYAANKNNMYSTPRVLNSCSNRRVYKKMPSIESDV

Row | SMILES | EC50 (Table 3) [µM] | Max % (Table 2) [%] | EC50 (Table 2) [µM]
1 | Cc1sc2nc(Cn3nc(C(F)(F)F)cc3Cl)cc(=O)n2c1C1CC1C (single isomer, unassigned) [compound 155] | 0.0616 |  | 
2 | CCNC(=O)c1c(C)sc2nc(Cc3cccc(F)c3)cc(=O)n12 [Example 21.46, N-ethyl-7-(3-fluorobenzyl)-2-methyl-5-oxo-5H-thiazolo[3,2-a]pyrimidine-3-carboxamide] |  | 43.2 | 
3 | CNC(=O)c1c(C)sc2nc(Cc3cccc(C#N)c3)cc(=O)n12 [Example 21.1, 7-(3-cyanobenzyl)-N,2-dimethyl-5-oxo-5H-thiazolo[3,2-a]pyrimidine-3-carboxamide] |  | 96.6 | 
4 | Cc1sc2nc(COc3ccc(F)cc3)cc(=O)n2c1[C@@H]1C[C@@H]1CO (relative stereo) [Example 4.23, 7-(4-Fluorophenoxymethyl)-3-[cis-2-(hydroxymethyl)cyclopropyl]-2-methyl-5H-[1,3]thiazolo[3,2-a]pyrimidin-5-one] |  | 62.9 | 26.5
5 | CCNC(=O)c1c(C)sc2nc(Cc3cc(C#N)ccc3CCF)cc(=O)n12 [Example 21.61, 7-(5-cyano-2-(2-fluoroethyl)benzyl)-N-ethyl-2-methyl-5-oxo-5H-thiazolo[3,2-a]pyrimidine-3-carboxamide] |  | 131 | 33.1
6 | CCc1sc2nc(Cn3nc(C(F)(F)F)cc3Cl)cc(=O)n2c1C1CC1C#N (stereo not shown) [compound 213, 2-[7-[[5-chloro-3-(trifluoromethyl)pyrazol-1-yl]methyl]-2-ethyl-5-oxo-thiazolo[3,2-a]pyrimidin-3-yl]cyclopropanecarbonitrile] | 0.066 |  | 
7 | CCNC(=O)c1c(C)sc2nc(Cc3cccc(C(F)(F)F)c3)cc(=O)n12 [Example 21.7, N-ethyl-2-methyl-5-oxo-7-(3-(trifluoromethyl)benzyl)-5H-thiazolo[3,2-a]pyrimidine-3-carboxamide] |  | 100 | 
8 | N#CC1CC1c1c(C(F)(F)F)sc2nc(Cc3cccc(C(F)(F)F)c3F)cc(=O)n12 (stereo not shown) [compound 162, 2-[7-[[2-fluoro-3-(trifluoromethyl)phenyl]methyl]-5-oxo-2-(trifluoromethyl)thiazolo[3,2-a]pyrimidin-3-yl]cyclopropanecarbonitrile] | 0.199 |  | 
9 | CCC(=O)c1c(C)sc2nc(COc3ccc(F)cc3)cc(=O)n12 [Example 2.1, 7-((4-fluorophenoxy)methyl)-2-methyl-3-propionyl-5H-thiazolo[3,2-a]pyrimidin-5-one] |  | 51.3 | 5.2
10 | O=c1cc(Cn2nc(C(F)(F)F)cc2Cl)nc2sc(C(F)(F)F)c(N3CC(F)C3)n12 [compound 254, 7-[[5-chloro-3-(trifluoromethyl)pyrazol-1-yl]methyl]-3-(3-fluoroazetidin-1-yl)-2-(trifluoromethyl)thiazolo[3,2-a]pyrimidin-5-one] | 1.37 |  | 
11 | CNC(=O)c1c(C)sc2nc(Cc3cc(C#N)ccc3F)cc(=O)n12 [Example 21.50, 7-[(5-cyano-2-fluoro-phenyl)methyl]-N,2-dimethyl-5-oxo-thiazolo[3,2-a]pyrimidine-3-carboxamide] |  | 76.1 | 
12 | N#CC1CC1c1c(C(F)(F)F)sc2nc(Cn3nc(C(F)(F)F)cc3Cl)cc(=O)n12 (single isomer, unassigned) [compound 208] | 0.37 |  | 
13 | Cc1cn2c(=O)cc(Cn3nc(C(F)(F)F)cc3C(F)(F)F)nc2s1 [Example 15.33, 7-((3,5-bis(trifluoromethyl)-1H-pyrazol-1-yl)methyl)-2-methyl-5H-thiazolo[3,2-a]pyrimidin-5-one] |  | 51.8 | 18.8
14 | Cc1sc2nc(Cc3cccc(C(F)(F)F)c3F)cc(=O)n2c1C(C)O (single isomer, unassigned; enantiomer 1) [Example 27.11, 7-(2-fluoro-3-(trifluoromethyl)benzyl)-3-(1-hydroxyethyl)-2-methyl-5H-thiazolo[3,2-a]pyrimidin-5-one (enantiomer 1)] |  |  | 25.3
15 | CCNC(=O)c1c(C)sc2nc(Cc3cc(C#N)ccc3C)cc(=O)n12 [Example 21.30, 7-(5-cyano-2-methylbenzyl)-N-ethyl-2-methyl-5-oxo-5H-thiazolo[3,2-a]pyrimidine-3-carboxamide] |  | 100 | 
16 | CNC(=O)c1c(C)sc2nc(Cn3cc(C(F)(F)F)cn3)cc(=O)n12 [compound 72, N,2-dimethyl-5-oxo-7-[[4-(trifluoromethyl)pyrazol-1-yl]methyl]thiazolo[3,2-a]pyrimidine-3-carboxamide] | 62.6 |  | 
17 | CCN(Cc1cc(=O)n2c(-c3cccs3)c(C)sc2n1)c1ccc(F)cc1 [Example 5.9, 7-((ethyl(4-fluorophenyl)amino)methyl)-2-methyl-3-(thiophen-2-yl)-5H-thiazolo[3,2-a]pyrimidin-5-one] |  | 143 | 1.3

Row | SMILES | EC50 (Table 3) [µM] | Max % (Table 2) [%] | EC50 (Table 2) [µM]
18 | CCNC(=O)c1c(C)sc2nc(Cc3cccc(C#N)c3Cl)cc(=O)n12 [Example 21.62, 7-(2-chloro-3-cyanobenzyl)-N-ethyl-2-methyl-5-oxo-5H-thiazolo[3,2-a]pyrimidine-3-carboxamide] |  | 45.6 | 
19 | Cc1sc2nc(Cc3cccc(C#N)c3F)cc(=O)n2c1-c1ncco1 [compound 3, 2-fluoro-3-[(2-methyl-3-oxazol-2-yl-5-oxo-thiazolo[3,2-a]pyrimidin-7-yl)methyl]benzonitrile] | 10.9 |  | 
20 | Cc1sc2nc(Cc3cccc(C#N)c3F)cc(=O)n2c1C1CC1(F)F (stereo not shown) [compound 39, 3-[[3-(2,2-Difluorocyclopropyl)-2-methyl-5-oxo-thiazolo[3,2-a]pyrimidin-7-yl]methyl]-2-fluorobenzonitrile] | 6.1 |  | 
21 | CCN(Cc1cc(=O)n2c(C(F)CCO)c(C)sc2n1)c1ccc(F)cc1 (stereo not shown) [Example 12.2, 7-[(N-ethyl-4-fluoro-anilino)methyl]-3-(1-fluoro-3-hydroxy-propyl)-2-methyl-thiazolo[3,2-a]pyrimidin-5-one] |  | 192 | 0.27
22 | Cc1sc2nc(Oc3cccc(C(F)(F)F)c3F)cc(=O)n2c1C1CC1C (stereo not shown) [compound 86, 7-[2-fluoro-3-(trifluoromethyl)phenoxy]-2-methyl-3-(2-methylcyclopropyl)thiazolo[3,2-a]pyrimidin-5-one] | 10.5 |  | 
23 | CC1CC1c1c(C(F)(F)F)sc2nc(Cc3cccc(C#N)c3F)cc(=O)n12 (stereo not shown) [compound 253, 2-fluoro-3-[[3-[2-methylcyclopropyl]-5-oxo-2-(trifluoromethyl)thiazolo[3,2-a]pyrimidin-7-yl]methyl]benzonitrile] | 9.95 |  | 
24 | CCN(Cc1cc(=O)n2c(-c3cncc(Cl)c3)c(C)sc2n1)c1ccc(F)cc1 [Example 5.31, 3-(5-chloro-3-pyridyl)-7-[(N-ethyl-4-fluoro-anilino)methyl]-2-methyl-thiazolo[3,2-a]pyrimidin-5-one] |  | 132 | 2.7
25 | O=c1cc(Cc2cccc(C(F)(F)F)c2F)nc2sc3c(n12)C(CO)CC3 (stereo not shown) [compound 92] | 47.1 |  | 
26 | Cc1sc2nc(Cc3cccc(C(F)(F)F)c3F)cc(=O)n2c1C(C)O (single isomer, unassigned; enantiomer 2) [Example 27.12, 7-(2-fluoro-3-(trifluoromethyl)benzyl)-3-(1-hydroxyethyl)-2-methyl-5H-thiazolo[3,2-a]pyrimidin-5-one (enantiomer 2)] |  |  | 40.8
27 | Cc1sc2nc(Cc3cccc(C(F)(F)F)c3F)cc(=O)n2c1C(=O)NC(C)C [compound 106, 7-[[2-fluoro-3-(trifluoromethyl)phenyl]methyl]-N-isopropyl-2-methyl-5-oxo-thiazolo[3,2-a]pyrimidine-3-carboxamide] | 3.4 |  | 
28 | CCNC(=O)c1c(C2CC2)sc2nc(Cn3nc(C4CC4)cc3C(F)(F)F)cc(=O)n12 [Example 16.7, 2-cyclopropyl-7-((3-cyclopropyl-5-(trifluoromethyl)-1H-pyrazol-1-yl)methyl)-N-ethyl-5-oxo-5H-thiazolo[3,2-a]pyrimidine-3-carboxamide] |  | 67.5 | 36.2
29 | COc1sc2nc(Cn3nc(C(F)(F)F)cc3Cl)cc(=O)n2c1-c1cccnc1 [compound 233, 7-[[5-chloro-3-(trifluoromethyl)pyrazol-1-yl]methyl]-2-methoxy-3-(3-pyridyl)thiazolo[3,2-a]pyrimidin-5-one] | 6.14 |  | 
30 | Cc1sc2nc(COc3ccc(F)cn3)cc(=O)n2c1[C@@H]1C[C@H]1CO (relative stereo) [Example 4.9, 7-[[(5-Fluoropyridin-2-yl)oxy]methyl]-3-[trans-2-(hydroxymethyl)cyclopropyl]-2-methyl-5H-[1,3]thiazolo[3,2-a]pyrimidin-5-one] |  | 123 | 4.4
31 | CNC(=O)c1c(C)sc2nc(Cc3cccc(C(F)(F)F)c3)cc(=O)n12 [Example 21.15, N,2-dimethyl-5-oxo-7-[[3-(trifluoromethyl)phenyl]methyl]thiazolo[3,2-a]pyrimidine-3-carboxamide] |  | 112 | 
32 | CCN(Cc1cc(=O)n2c3c(sc2n1)CCC3CO)c1ccc(F)cc1 (single isomer, unassigned) [Example 8.3, 6-[(N-ethyl-4-fluoro-anilino)methyl]-1-(hydroxymethyl)-2,3-dihydro-1H-cyclopenta[3,4]thiazolo[1,4-a]pyrimidin-8-one] |  | 150 | 1.3
33 | Cc1sc2nc(Cn3nc(C(F)(F)F)cc3Cl)cc(=O)n2c1-c1cncc(C#N)c1 [compound 197, 5-[7-[[5-chloro-3-(trifluoromethyl)pyrazol-1-yl]methyl]-2-methyl-5-oxo-thiazolo[3,2-a]pyrimidin-3-yl]pyridine-3-carbonitrile] | 0.327 |  | 
